What was measured:
[1] = test system: natural antibody function; experiment: Pig to cynomolgus kidney transplants; assay type: in vivo; details: 6 mg/kg/day, i.v.
Description: As is discussed herein, contacting the recipient's blood with galactosyl (α1, 3) galactose epitopes can be used to deplete the host of natural antibodies. Other methods for depleting or otherwise inactivating natural antibodies can be used with any of the methods described herein. For example, drugs which inactivate natural antibodies, e.g., deoxyspergualin (DSG) (Bristol), or anti-IgM antibodies, can be administered to the recipient of an allograft or a xenograft. One or more of, DSG (or similar drugs), anti-IgM antibodies, and hemoperfusion, can be used to inactivate recipient natural antibodies in methods of the invention.

[2] = test system: human natural antibodies (IgG, IgM) binding to porcine PBMC; experiment: Competitive binding assay, flow cytometry: human natural antibody binding to porcine PBMC; details: human serum pre-incubated with competitor at 1 mg/ml
Experimental: FIG. 1 (Panels A, B, C, D) is a set of graphs which show α1,3Gal/BSA-inhibition of human natural antibody binding to pig cells. Human serum (20 μl) was preincubated with αGal/BSA (Panels A,C) or bovine thyroglobulin (Panels B,D) at concentrations of 1,000 μg/ml (b) or 0.1 μg/ml (c) prior to staining of porcine peripheral blood mononuclear cells (pPBMCs). The negative control (a) consisted of pPBMC plus an equivalent volume of galactosyl α(1, 3) galactose reactive natural antibody-depleted human serum (XNA^−) while the positive control was 20 μl human serum without competitor (d). Following incubation with the human serum, the cells were stained with either anti-human IgG (Panels A,B) or anti-human IgM (Panels C,D).
Human sera were obtained from healthy adult volunteers. Individual samples were isolated and stored at 4° C. for short periods or aliquoted and stored at −70° C. Porcine peripheral blood mononuclear cells (pPBMC) were isolated from heparinized whole blood obtained from an inbred miniature swine herd and resuspended in flow cytometric analysis staining buffer (Hank's Buffered Saline Solution (HBSS), 2.0% fetal calf serum, 0.04% sodium azide (Sigma Chemical Co., St. Louis, Mo.)) to a final concentration of 1×10^7 pPBMC/ml.
Human serum (15 μl) was pre-incubated with serially diluted αGal/BSA, bovine thyroglobulin (Sigma Chemical Co., St. Louis, Mo.) or BSA (Fisher Scientific, Pittsburgh, Pa.) at final concentrations of 1 mg/ml to 1 ng/ml for 90 minutes at 4° C. with gentle rocking. Fifty μl of pPBMC (5×10^5 cells) was incubated with 50 μl of human serum plus competitor for 90 minutes at 4° C. The positive control consisted of staining with human serum alone and the negative control was human serum depleted of natural antibodies (XNA^−). The cells were processed for all subsequent steps in the same way as for direct flow cytometric analysis (DerSimonian, H. M. et al. (1993) J. Exp. Med. 177:1623).

[3] = test system: galactosyl α(1, 3) galactose-reactive natural antibodies in human serum; experiment: Competitive ELISA with αGal/BSA or bovine thyroglobulin coated plates; assay type: binding
Experimental: In order to facilitate the detection of galactosyl α(1, 3) galactose-reactive antibodies in human serum samples, an ELISA system using αGal/BSA as the antigen was used. αGal/BSA (provided by BioTransplant, Inc.) was used to coat 96 well polystyrene plates (Costar) at a concentration of 10 μg/ml in PBS overnight at 4° C. Plates coated with BSA were included to control for background reactivity to BSA. Wells were blocked for 1-2 hours at room temperature with 1% BSA in TBS (100 mM Tris-HCl, pH 7.5, 0.9% NaCl). All plates were washed three times with 0.1% Tween-20 in TBS (TBS/Tween) using a Skatron plate washer (Skatron Instruments, Inc., Sterling, Va.). Serial dilutions of human serum from a single donor were used as the standard positive controls. XNA^− (see Example 3) was used as the negative control. Samples were aliquoted in triplicate and allowed to incubate at room temperature for 1 hour. After washing three times with TBS/Tween, the plates were incubated with alkaline phosphatase conjugated mouse monoclonal anti-human IgG or IgM antibody (Sigma Chemical Co., St. Louis, Mo.) for 1-2 hours at room temperature in the dark. The plates were washed and developed with Sigma 104 alkaline phosphatase substrate tablets in carbonate buffer (0.203 g MgCl2, 2.2 g Na2CO3, 2.43 g. NaHCO3 in 1 L. water). The amount of colored product was measured at 405 nm using the SLT Lab Instruments 340 ATC ELISA reader. For competitive ELISA, bovine thyroglobulin and αGal/BSA were serially diluted ten-fold in TBS to final concentrations of 1 mg/ml to 1 ng/ml. Equal volumes of human serum and competitor were combined and incubated for 1 hour at 4° C. The competition reactions were then aliquoted to antigen coated plates and incubated for 1 hour at room temperature. The plates were washed and incubated with alkaline phosphatase conjugated mouse monoclonal anti-human IgG or IgM antibody (Sigma Chemical Co., St. Louis, Mo.) for 1 hour at room temperature. The wells were washed and developed with Sigma 104 alkaline phosphatase substrate. All samples were analyzed in triplicate.

[4] = Stability of αGal/BSA in the ELISA system in the presence of human serum; assay type: physicochemical; details: 37° C. for up to 24 hours
Experimental: To ensure that the galactosyl α(1, 3) galactose epitope was stable under these conditions, experiments were performed to determine if there was any detectable hydrolysis of the galactosyl α(1, 3) galactose carbohydrate moiety in the presence of human serum.

concentration necessary to block binding of αGal-reactive natural antibodies to αGal/BSA ([3]; competitive ELISA, αGal/BSA as antigen) | inhibition of binding of serum natural antibodies to αGal/BSA ([3]; pre-incubation of serum with competitor) | concentration that completely inhibited binding of human IgG and IgM to bovine thyroglobulin ([3]; competitive ELISA, bovine thyroglobulin as antigen) | Compound | suppression of natural antibody function [1] | decrease in IgG binding to pig cells (median fluorescence intensity) [2] | reduction of IgM binding to pig cells (median fluorescence intensity) [2] | stability (hydrolysis of the galactosyl α(1, 3) galactose moiety) in the ELISA system [4]
 |  |  | N=C(N)NCCCCCCC(=O)NC(O)C(=O)NCCCCNCCCN (stereo not drawn) [DSG, deoxyspergualin] | useful in suppressing natural antibody function |  |  | 
100-1,000 μg/ml | completely inhibited |  | Bovine thyroglobulin: galactosyl α(1, 3) galactose containing molecule, estimated eleven naturally occurring residues, 300 kD (Sigma) |  | 79% | 66% | 
 |  | 1 µg/mL | αGal/BSA: synthetic conjugate with fifteen to thirty-nine αGal moieties per BSA molecule, 70 kD |  | 84% | 94% | stable
